# Test results: publication PMC6749236, “Synthesis of Novel 2-(Het)arylpyrrolidine Derivatives and Evaluation of Their Anticancer and Anti-Biofilm Activity” (Molecules, 2019)
# Columns and labels:
# M-Hela = experiment: Cytotoxicity assay (Cytell Cell Imaging, DAPI/propidium iodide), cancer cell line; format: cell-based; conditions: Homo sapiens, M-HeLa, read-out: IC50 Cancer Cell Line M-Hela
# Chang liver cell line = experiment: Cytotoxicity assay (Cytell Cell Imaging), normal cell line; format: cell-based; conditions: Homo sapiens, read-out: IC50 Normal Cell Line Chang Liver
# P388 murine leukemia = experiment: In vivo anti-tumor activity, i.p. implanted leukemia; set-up: species or system BDF1 hybrid male mice; conditions: for ILS / MST ± SD: P388; for Survival: day 60
# Experimental: Animals. In vivo experiments were performed using the BDF1 hybrid male mice of 22–24 g weight. The experimental animals were caged in a standard vivarium in 12 h light conditions with free access to food and water. All manipulations with the animals were performed in accordance with the solutions of the Commission on Bioethics of the Institute of Problems of Chemical Physics, Russian Academy of Sciences (IPCP RAS).
# Anti-tumor activity. The tumors were transplanted intraperitoneally (i.p.) in accordance with a standard procedure inoculum: 10^6 tumor cells in isotonic solution of NaCl, V = 0.2 cm^3 (leukemia P388). Original compounds were injected intraperitoneally as aqueous solution. Doses from 18 to 83 mg/kg/day and the mode of administration on days 1, 5, and 9 after transplantation were used. In each experiment, a single group of tumor-bearing animals not injected with the compounds served as the control group. Each group consisted of six mice. The animals were observed daily for survival for a minimum of 60 days. The efficacy of the therapy against leukemia (defined as increase in lifespan—ILS) was assessed as the percentage of the median survival time (MST) of the treated group (t) to that of the control group (c): ILS(%) = (MSTt/MSTc) × 100.
# Statistics. The experiments were carried out in triplicate. The data are presented in the form X ± SD (mean ± standard deviation). The significance of the differences between the groups was assessed using Student’s t-test. Values of p < 0.05 were considered statistically significant. The data were processed statistically using GraphPad Prism.
# [1] = Water solubility (selection for parenteral administration); format: physicochemical
# [2] = 18 mg/kg/day i.p., days 1, 5, 9
# [3] = 26 mg/kg/day i.p., days 1, 5, 9
# [4] = 40 mg/kg/day i.p., days 1, 5, 9
# [5] = 55 mg/kg/day i.p., days 1, 5, 9
# [6] = 83 mg/kg/day i.p., days 1, 5, 9
smiles,measurement,setting,value
"O=C(Nc1ccccc1)N1CCCC1c1cc2c(cc1O)OCO2 (centres unmarked) [5b, 2-(6-Hydroxybenzo[d][1,3]dioxol-5-yl)-N-phenylpyrrolidine-1-carboxamide]",IC50,M-Hela,> 100 µM
same,IC50,Chang liver cell line,> 100 µM
same,ILS,P388 murine leukemia; [2],177%
same,MST ± SD,P388 murine leukemia; [2],27.7 ± 10.3 days
same,Survival,P388 murine leukemia; 18 mg/kg/day,33%
same,ILS,P388 murine leukemia; [3],165%
same,MST ± SD,P388 murine leukemia; [3],26.5 ± 10.6 days
same,Survival,P388 murine leukemia; 26 mg/kg/day,33%
same,ILS,P388 murine leukemia; [4],160%
same,MST ± SD,P388 murine leukemia; [4],26.0 ± 10.8 days
same,Survival,P388 murine leukemia; 40 mg/kg/day,33%
same,ILS,P388 murine leukemia; [5],80%
same,MST ± SD,P388 murine leukemia; [5],18.0 ± 8.4 days
same,Survival,P388 murine leukemia; 55 mg/kg/day,17%
same,ILS,P388 murine leukemia; [6],0%
same,MST ± SD,P388 murine leukemia; [6],9.7 ± 0.2 days
same,Survival,P388 murine leukemia; 83 mg/kg/day,0%
same,Survivors/Total,"P388 murine leukemia; 83 mg/kg/day, survivors on day 60",0/6
same,"antitumor (anti-leukemic) activity, in words","P388 murine leukemia; P388, dose range 18–83 mg/kg/day i.p., days 1, 5, 9",pronounced anti-leukemic activity
same,"solubility in water, in words",[1],water-soluble
